The text below walks through data of ChEMBL document CHEMBL2074486, “Identification of basic residues involved in drug export function of human multidrug resistance-associated protein 2” (J Biol Chem, 2000).

Data set [1] deals with T1, ATP-binding cassette sub-family C member 2 (Homo sapiens, UniProt Q92887). Kind of data set: TP_TRANSPORTER: excretion in MRP2-expressing CHO cells. The class given is functional, cell-based. As to conditions: hamster.
For data set [2], the target named is T1, ATP-binding cassette sub-family C member 2. Kind of data set: TP_TRANSPORTER: excretion in MRP2-expressing COS-7 cells. The format is functional, cell-based. To be noted: monkey.

T1 sequence (Q92887 whole entry): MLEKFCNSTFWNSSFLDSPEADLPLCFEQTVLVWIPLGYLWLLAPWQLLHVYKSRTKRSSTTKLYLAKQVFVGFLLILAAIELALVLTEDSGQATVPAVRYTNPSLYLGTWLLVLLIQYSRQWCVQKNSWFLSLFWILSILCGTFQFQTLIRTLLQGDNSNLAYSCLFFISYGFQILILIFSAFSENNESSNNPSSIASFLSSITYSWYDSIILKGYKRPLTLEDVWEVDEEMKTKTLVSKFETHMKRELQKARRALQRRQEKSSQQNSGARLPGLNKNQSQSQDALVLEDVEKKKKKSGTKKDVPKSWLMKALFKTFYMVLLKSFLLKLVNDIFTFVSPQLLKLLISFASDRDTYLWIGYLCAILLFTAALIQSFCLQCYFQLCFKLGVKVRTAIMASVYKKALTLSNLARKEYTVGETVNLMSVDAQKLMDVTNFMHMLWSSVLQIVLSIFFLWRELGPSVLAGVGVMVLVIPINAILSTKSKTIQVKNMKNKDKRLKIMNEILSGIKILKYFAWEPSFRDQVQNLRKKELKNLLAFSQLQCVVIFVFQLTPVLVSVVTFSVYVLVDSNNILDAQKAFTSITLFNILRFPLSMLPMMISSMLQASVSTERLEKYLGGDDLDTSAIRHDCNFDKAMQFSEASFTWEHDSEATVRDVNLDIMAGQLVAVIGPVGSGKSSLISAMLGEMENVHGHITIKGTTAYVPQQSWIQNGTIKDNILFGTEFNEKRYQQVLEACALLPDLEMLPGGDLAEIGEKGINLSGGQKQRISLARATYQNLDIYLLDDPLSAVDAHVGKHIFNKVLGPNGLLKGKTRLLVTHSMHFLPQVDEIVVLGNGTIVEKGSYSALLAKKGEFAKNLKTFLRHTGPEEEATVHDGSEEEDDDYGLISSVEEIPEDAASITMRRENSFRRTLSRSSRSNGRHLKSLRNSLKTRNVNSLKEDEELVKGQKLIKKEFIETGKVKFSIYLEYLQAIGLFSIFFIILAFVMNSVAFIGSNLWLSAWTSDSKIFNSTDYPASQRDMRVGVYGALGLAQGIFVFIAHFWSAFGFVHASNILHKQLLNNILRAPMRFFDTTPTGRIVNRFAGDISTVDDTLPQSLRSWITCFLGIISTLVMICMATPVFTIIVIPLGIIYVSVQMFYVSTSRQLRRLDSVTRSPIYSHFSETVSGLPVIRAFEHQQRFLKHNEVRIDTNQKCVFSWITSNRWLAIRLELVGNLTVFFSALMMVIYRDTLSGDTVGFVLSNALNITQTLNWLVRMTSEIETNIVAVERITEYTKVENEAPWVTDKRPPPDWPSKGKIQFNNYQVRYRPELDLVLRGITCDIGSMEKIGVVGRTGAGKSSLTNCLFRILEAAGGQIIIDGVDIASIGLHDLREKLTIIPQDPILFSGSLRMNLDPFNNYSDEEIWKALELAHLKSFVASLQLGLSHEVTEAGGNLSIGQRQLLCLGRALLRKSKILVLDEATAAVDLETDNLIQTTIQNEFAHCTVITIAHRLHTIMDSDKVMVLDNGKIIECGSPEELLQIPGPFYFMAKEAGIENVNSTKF

Turning to `N[C@@H](CCC(=O)N[C@H](CSc1cc(=O)n2c(=O)ccn12)C(=O)NCC(=O)O)C(=O)O`, the Activity entry in data set [1] and in data set [2] was “substrate [+]” throughout.

Turning to `N[C@@H](CCC(=O)N[C@H](CSCc1ccc(-c2c3ccc(=O)cc-3oc3cc(O)ccc23)c(C(=O)O)c1)C(=O)NCC(=O)O)C(=O)O` [Glutathione-methylfluorescein], the Activity entry in data set [1] and in data set [2] was “substrate [+]” throughout.
